Results on 13 molecules are retold here after US9067966B2, “Lupeol-type triterpene derivatives as antivirals” (priority 2009, dated 2015).

For the experiment, the system named is HIV-1 strain 92-HT599. The experiment is described as follows: Anti HIV-1 p24 assay, strain 92-HT599 in MT2 cells. The experiment is classed as cell-based. To be noted: for IC50: MT2 cells infected with HIV-1 92-HT599, p24, 96 hours. The procedure:
MT2 cells were infected with the HIV-1 strain 92-HT599 (10TCID50/30000 cells). The infected cells are plated at the concentration of 30000 cells per well in a 96 well assay micro plate. A test compound was added to the micro plate in a defined format with the final concentration of DMSO (vehicle) being not more than 1%. Incubation was carried out in a CO2 incubator for 96 hours for viral infection. At the end of incubation period an aliquot from each well was taken for p24 estimation. The quantitation of p24 is an index for antiviral activity of the compound. Percent inhibition was calculated with reference to control values (vehicle).
P24 estimation was carried out using an Advance Biosciences kit as per the procedure as detailed by supplier.
[…] was made by dissolving test compound in DMSO. Subsequent dilutions were made with DMSO to make necessary working stocks (100×).

Setting [1] is: Human immunodeficiency virus 1, MT2 cells, HIV-1 92-HT599, p24, concentration 0.1 μM, read-out: Percent inhibition.
Where [2] appears, read: Human immunodeficiency virus 1, MT2 cells, HIV-1 92-HT599, p24, concentration 1 μM, read-out: Percent inhibition.
The mark [3] stands for this setting: Human immunodeficiency virus 1, MT2, read-out: Percent inhibition.

Structures are written as SMILES. Read-outs that look alike come from different tables or passages of the source.

Regarding `C=C(C)[C@@H]1CC[C@]2(C(=O)NC3CCC(CN4CCCCC4)C3)CC[C@]3(C)[C@H](CC[C@@H]4[C@@]5(C)CC[C@H](OC(=O)CCC(=O)O)C(C)(C)[C@@H]5CC[C@]43C)[C@@H]12` (stereo partly drawn) [Example 96, 4-oxo-4-((1R,3aS,5aR,5bR,7aR,9S,11aR,11bR,13aR,13bR)-5a,5b,8,8,11a-pentamethyl-3a-(3-(piperidin-1-ylmethyl)cyclopentylcarbamoyl)-1-(prop-1-en-2-yl)icosahydro-1H-cyclopenta[a]chrysen-9-yloxy)butanoic acid], the IC50 (Human immunodeficiency virus 1) turned out to be 0.1 nM.

On to `C=C(C)[C@@H]1CC[C@]2(C(=O)N[C@@H]3CC[C@H](CN4CCOCC4)C3)CC[C@]3(C)[C@H](CC[C@@H]4[C@@]5(C)CC[C@H](O)C(C)(C)[C@@H]5CC[C@]43C)[C@@H]12` [Example 23, (1R,3aS,5aR,5bR,7aR,9S,11aR,11bR,13aR,13bR)-9-hydroxy-5a,5b,8,8,11a-pentamethyl-N-((1R,3S)-3-(morpholinomethyl)cyclopentyl)-1-(prop-1-en-2-yl)icosahydro-1H-cyclopenta[a]chrysene-3a-carboxamide], for which the inhibition at 0.1 µM under setting [1] came out at 11%. Besides, the inhibition at 1 µM under setting [2] is 37%.

Regarding `C=C(C)[C@@H]1CC[C@]2(C(=O)N[C@@H]3C[C@H](C(=O)N4CCCCC4)C3(C)C)CC[C@]3(C)[C@H](CC[C@@H]4[C@@]5(C)CC[C@H](OC(=O)[C@@H]6C[C@H](C(=O)O)C6(C)C)C(C)(C)[C@@H]5CC[C@]43C)[C@@H]12` [Example 59, (1S,3R)-3-(((1R,3aS,5aR,5bR,7aR,9S,11aR,11bR,13aR,13bR)-3a-((1R,3S)-2,2-dimethyl-3-(piperidine-1-carbonyl)cyclobutylcarbamoyl)-5a,5b,8,8,11a-pentamethyl-1-(prop-1-en-2-yl)icosahydro-1H-cyclopenta[a]chrysen-9-yloxy)carbonyl)-2,2-dimethylcyclobutanecarboxylic acid], where the note is “Human immunodeficiency virus 1”, 6 nM corresponded to half-maximal inhibition (IC50).

As to `C=C(C)[C@@H]1CC[C@]2(C(=O)N[C@@H]3CC[C@H](CN4CCC(Cc5ccccc5)CC4)C3)CC[C@]3(C)[C@H](CC[C@@H]4[C@@]5(C)CC[C@H](OC(=O)CC(C)(C)C(=O)O)C(C)(C)[C@@H]5CC[C@]43C)[C@@H]12` [Example 99, 4-((1R,3aS,5aR,5bR,7aR,9S,11aR,11bR,13aR,13bR)-3a-((1R,3S)-3-((4-benzylpiperidin-1-yl)methyl)cyclopentylcarbamoyl)-5a,5b,8,8,11a-pentamethyl-1-(prop-1-en-2-yl)icosahydro-1H-cyclopenta[a]chrysen-9-yloxy)-2,2-dimethyl-4-oxobutanoic acid], under setting [1], the inhibition at 0.1 µM was found to be 89%. The inhibition at 1 µM under setting [2] is 97%.

Consider `C=C(C)[C@@H]1CC[C@]2(C(=O)NC3CC(C(=O)NCCC(=O)N4CCOCC4)C3(C)C)CC[C@]3(C)[C@H](CC[C@@H]4[C@@]5(C)CC[C@H](O)C(C)(C)[C@@H]5CC[C@]43C)[C@@H]12` (stereo partly drawn) [Example 97, (1R,3aS,5aR,5bR,7aR,9S,11aR,11bR,13aR,13bR)-N-(2,2-dimethyl-3-(3-morpholino-3-oxopropylcarbamoyl)cyclobutyl)-9-hydroxy-5a,5b,8,8,11a-pentamethyl-1-(prop-1-en-2-yl)icosahydro-1H-cyclopenta[a]chrysene-3a-carboxamide], for which, under setting [1], the inhibition at 0.1 µM came to 37%. Moreover, the inhibition at 1 µM under setting [2] came to 67%.

In the case of `C=C(C)[C@@H]1CC[C@]2(C(=O)N[C@@H]3C[C@H](C(=O)N[C@H](C(=O)O)C(C)C)C3(C)C)CC[C@]3(C)[C@H](CC[C@@H]4[C@@]5(C)CC[C@H](O)C(C)(C)[C@@H]5CC[C@]43C)[C@@H]12` [Example 40, (S)-2-((1S,3R)-3-((1R,3aS,5aR,5bR,7aR,9S,11aR,11bR,13aR,13bR)-9-hydroxy-5a,5b,8,8,11a-pentamethyl-1-(prop-1-en-2-yl)icosahydro-1H-cyclopenta[a]chrysene-3a-carboxamido)-2,2-dimethylcyclobutanecarboxamido)-3-methylbutanoic acid], the inhibition at 0.1 µM under setting [1] is 13%. The inhibition at 1 µM under setting [2] worked out at 42%.

`C=C(C)[C@@H]1CC[C@]2(C(=O)N[C@@H]3C[C@H](C(=O)N4CCCC4)C3(C)C)CC[C@]3(C)[C@H](CC[C@@H]4[C@@]5(C)CC[C@H](O)C(C)(C)[C@@H]5CC[C@]43C)[C@@H]12` [Example 44, (1R,3aS,5aR,5bR,7aR,9S,11aR,11bR,13aR,13bR)-N-((1R,3S)-2,2-dimethyl-3-(pyrrolidine-1-carbonyl)cyclobutyl)-9-hydroxy-5a,5b,8,8,11a-pentamethyl-1-(prop-1-en-2-yl)icosahydro-1H-cyclopenta[a]chrysene-3a-carboxamide]: under setting [1], the inhibition at 0.1 µM was 15%. Moreover, the inhibition at 1 µM under setting [2] is 43%.

Consider `C=C(C)[C@@H]1CC[C@]2(C(=O)N[C@@H]3C=C[C@H](CN4CCOCC4)C3)CC[C@]3(C)[C@H](CC[C@@H]4[C@@]5(C)CC[C@H](O)C(C)(C)[C@@H]5CC[C@]43C)[C@@H]12` [Example 26, (1R,3aS,5aR,5bR,7aR,9S,11aR,11bR,13aR,13bR)-9-hydroxy-5a,5b,8,8,11a-pentamethyl-N-((1S,4R)-4-(morpholinomethyl)cyclopent-2-enyl)-1-(prop-1-en-2-yl)icosahydro-1H-cyclopenta[a]chrysene-3a-carboxamide], for which, under setting [3], the inhibition at 0.1 µM is 52% and the inhibition at 1 µM came to 53%.

Consider `C=C(C)[C@@H]1CC[C@]2(C(=O)N[C@H]3C[C@@H](C(=O)N4CCOCC4)C3(C)C)CC[C@]3(C)[C@H](CC[C@@H]4[C@@]5(C)CC[C@H](OC(=O)[C@@H]6C[C@H](C(=O)O)C6(C)C)C(C)(C)[C@@H]5CC[C@]43C)[C@@H]12` [Example 61, (1S,3R)-3-(((1R,3aS,5aR,5bR,7aR,9S,11aR,11bR,13aR,13bR)-3a-((1S,3R)-2,2-dimethyl-3-(morpholine-4-carbonyl)cyclobutylcarbamoyl)-5a,5b,8,8,11a-pentamethyl-1-(prop-1-en-2-yl)icosahydro-1H-cyclopenta[a]chrysen-9-yloxy)carbonyl)-2,2-dimethylcyclobutanecarboxylic acid], for which, for the setting “Human immunodeficiency virus 1”, 7 nM corresponded to half-maximal inhibition (IC50).

For the molecule `C=C(C)[C@@H]1CC[C@]2(C(=O)N[C@H]3C[C@@H](C(=O)N4CCCC4)C3(C)C)CC[C@]3(C)[C@H](CC[C@@H]4[C@@]5(C)CC[C@H](O)C(C)(C)[C@@H]5CC[C@]43C)[C@@H]12` [Example 14, (1R,3aS,5aR,5bR,7aR,9S,11aR,11bR,13aR,13bR)-N-((1S,3R)-2,2-dimethyl-3-(pyrrolidine-1-carbonyl)cyclobutyl)-9-hydroxy-5a,5b,8,8,11a-pentamethyl-1-(prop-1-en-2-yl)icosahydro-1H-cyclopenta[a]chrysene-3a-carboxamide], the inhibition at 0.1 µM under setting [1] stood at 71%. Also, the inhibition at 1 µM under setting [2] came out at 32%.

On to `C=C(C)[C@@H]1CCC2(C(=O)N3C4CCC3CC(n3c(C)nnc3C(C)C)C4)CC[C@]3(C)[C@H](CC[C@@H]4[C@@]5(C)CC[C@H](O)C(C)(C)[C@@H]5CC[C@]43C)[C@@H]12` (stereo partly drawn) [Example 25, ((1R,5aR,5bR,7aR,9S,11aR,11bR,13aR,13bR)-9-hydroxy-5a,5b,8,8,11a-pentamethyl-1-(prop-1-en-2-yl)icosahydro-1H-cyclopenta[a]chrysen-3a-yl)(3-(3-isopropyl-5-methyl-4H-1,2,4-triazol-4-yl)-8-azabicyclo[3.2.1]octan-8-yl)methanone], for which the inhibition at 0.1 µM under setting [1] is 33%. For the same molecule, under setting [2], the inhibition at 1 µM turned out to be 25%.

As for `C=C(C)[C@@H]1CC[C@]2(C(=O)NC3CC(C(=O)NCCC(=O)N4CCCC4)C3(C)C)CC[C@]3(C)[C@H](CC[C@@H]4[C@@]5(C)CC[C@H](O)C(C)(C)[C@@H]5CC[C@]43C)[C@@H]12` (stereo partly drawn) [Example 98, (1R,3aS,5aR,5bR,7aR,9S,11aR,11bR,13aR,13bR)-N-(2,2-dimethyl-3-(3-oxo-3-(pyrrolidin-1-yl)propylcarbamoyl)cyclobutyl)-9-hydroxy-5a,5b,8,8,11a-pentamethyl-1-(prop-1-en-2-yl)icosahydro-1H-cyclopenta[a]chrysene-3a-carboxamide], under setting [1], the inhibition at 0.1 µM turned out to be 1%. Moreover, the inhibition at 1 µM under setting [2] was found to be 50%.

`C=C(C)[C@@H]1CC[C@]2(C(=O)N[C@@H]3CC[C@H](CN4CCCC(C)C4)C3)CC[C@]3(C)[C@H](CC[C@@H]4[C@@]5(C)CC[C@H](OC(=O)CC(C)(C)C(=O)O)C(C)(C)[C@@H]5CC[C@]43C)[C@@H]12` (stereo partly drawn) [Example 51, 2,2-dimethyl-4-oxo-4-((1R,3aS,5aR,5bR,7aR,9S,11aR,11bR,13aR,13bR)-5a,5b,8,8,11a-pentamethyl-3a-((1R,3S)-3-((3-methylpiperidin-1-yl)methyl)cyclopentylcarbamoyl)-1-(prop-1-en-2-yl)icosahydro-1H-cyclopenta[a]chrysen-9-yloxy)butanoic acid] registered an IC50 (Human immunodeficiency virus 1) of 1 nM.
